molecular target: T1, human β3 adrenergic receptor (Homo sapiens, UniProt P13945); assay: whole cell receptor coupled c-AMP assay, human β3 receptor in CHO cells (EC50, Emax relative to isoproterenol); assay type: cell-based; conditions: % intrinsic activity relative to isoproterenol maximal response; average of at least 3 runs; c-AMP in transfected CHO cells
T1 construct: expressed in transfected cells; host or cells: DXB-11 Chinese hamster ovary (CHO) cell line, stably transfected (phd expression vector)
T1 sequence (P13945 whole entry): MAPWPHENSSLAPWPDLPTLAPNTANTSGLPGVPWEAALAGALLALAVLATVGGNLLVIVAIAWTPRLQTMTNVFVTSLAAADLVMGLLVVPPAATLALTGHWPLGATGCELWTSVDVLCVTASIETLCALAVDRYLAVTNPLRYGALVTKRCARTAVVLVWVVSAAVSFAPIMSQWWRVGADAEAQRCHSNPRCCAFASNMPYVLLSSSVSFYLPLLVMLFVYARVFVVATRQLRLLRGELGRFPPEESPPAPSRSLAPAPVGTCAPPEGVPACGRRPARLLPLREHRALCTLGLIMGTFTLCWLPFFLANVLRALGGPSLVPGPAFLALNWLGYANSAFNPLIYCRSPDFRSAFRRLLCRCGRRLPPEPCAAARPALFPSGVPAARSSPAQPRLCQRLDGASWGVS
Summary of the method: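 Stably transfected DXB-11 CHO cells (20,000/well) were exposed to compound for 20 min at 37 °C in HBSS/HEPES buffer with 1 mM IBMX, pH 7.4. cAMP was measured by SPA. EC50 came from a four-parameter logistic fit, and Emax is the maximal response as a percentage of isoproterenol's.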

| SMILES | Emax (%) ± SEM |
| --- | --- |
| CC(C)(Cc1ccc(Oc2ncccc2C(N)=O)cc1)NC[C@H](O)COc1ccccc1-c1ccsc1.Cl [Example 446] | 64.0 ± 6.0% |
| CC(C)(Cc1ccc(Oc2ccc(C(N)=O)cn2)cc1)NC[C@H](O)COc1ccccc1-c1ccc(Cl)s1.Cl [Example 410] | 76.0 ± 5.0% |
| CC(C)(Cc1ccc(Oc2ccc(S(C)(=O)=O)cc2)cc1)NC[C@H](O)COc1ccccc1-c1ccsc1.Cl [Example 382] | 32.3 ± 1.9% |
| CC(=O)c1ccc(-c2cccc(F)c2OC[C@@H](O)CNC(C)(C)Cc2ccc(Oc3ncccc3C#N)cc2)s1.O=C(O)C(F)(F)F [Example 439] | 75.0 ± 9.6% |
| CC(C)(Cc1ccc(Oc2ncccc2C#N)cc1)NC[C@H](O)COc1c(F)cccc1-c1ccsc1.Cl [Example 436] | 57.5 ± 12.0% |
| CC(C)(Cc1ccc(Oc2ccc(S(C)(=O)=O)cc2)cc1)NC[C@H](O)COc1ccccc1-c1ccco1.Cl [Example 395] | 46.6 ± 5.9% |
| CC(C)(Cc1ccc(Oc2ccc(S(C)(=O)=O)cc2)cc1)NC[C@H](O)COc1ccccc1-c1ccc(Cl)s1.Cl [Example 393] | 50.0 ± 3.6% |

same assay, conditions: Emax ± SEM; average of at least 3 runs except as otherwise indicated; tested as the isolated form listed

| SMILES | Emax (%) ± SEM |
| --- | --- |
| CC(C)(Cc1ccc(Oc2cccnc2C#N)cc1)NC[C@H](O)COc1ccccc1-c1ccoc1.Cl [Example 307] | 74.4 ± 1.8% |
| CC(C)(Cc1ccc(Oc2ccc(C#N)s2)cc1)NC[C@H](O)COc1ccccc1-c1nccs1.O=C(O)C(F)(F)F [Example 328] | 57.4 ± 6.5% |
| CC(C)(Cc1ccc(Oc2ncccc2C#N)cc1)NC[C@H](O)COc1ccccc1-c1ccoc1.Cl [Example 306] | 82.4 ± 4.0% |
| CC(C)(Cc1ccc(Oc2ncccc2C(N)=O)cc1)NC[C@H](O)COc1ccccc1-c1ccoc1.Cl [Example 303] | 67.9 ± 6.1% |

same assay, conditions: Emax ± standard error of the mean; average of at least 3 runs except where n = 1; compound tested in the isolated form listed

| SMILES | Emax (%) ± SEM |
| --- | --- |
| CC(C)(Cc1ccc(Oc2ccc(Cl)nn2)cc1)NC[C@H](O)COc1ccccc1-c1nccs1.O=C(O)C(F)(F)F [Example 209] | 88.3 ± 8.0% |
| CC(C)(Cc1ccc(Oc2ccc(C(N)=O)cc2Cl)cc1)NC[C@H](O)COc1ccccc1-c1cccs1.O=C(O)C(F)(F)F [Example 164] | 67.3 ± 3.5% |
| CC1(C)COC(c2ccccc2OC[C@@H](O)CNC(C)(C)Cc2ccc(Oc3ccc(C(N)=O)cn3)cc2)=N1 [Example 28] | 83.4 ± 7.2% |
| CCOC(=O)c1ccc(Oc2ccc(CC(C)(C)NC[C@H](O)COc3ccccc3-c3cccs3)cc2)c(Cl)c1.O=C(O)C(F)(F)F [Example 204] | 67.6 ± 4.0% |
| CC(C)(Cc1ccc(Oc2ncccc2Cl)cc1)NC[C@H](O)COc1ccccc1-c1cccs1.O=C(O)C(F)(F)F [Example 178] | 64.4 ± 5.2% |
| CC(C)(Cc1ccc(Oc2ncccc2C(N)=O)cc1)NC[C@H](O)COc1ccccc1-c1nncs1.O=C(O)C(=O)O [Example 97] | 52.4 ± 0.8% |
| CC(C)(Cc1ccc(Oc2ccc(C(N)=O)cc2)cc1)NC[C@H](O)COc1ccccc1-c1ccns1.O=C(O)C(F)(F)F [Example 126] | 62.2 ± 1.3% |
| CC(C)(Cc1ccc(Oc2ncccc2C(N)=O)cc1)NC[C@H](O)COc1ccccc1N1CCCC1=O [Example 77] | 22.4 ± 4.6% |
| CC(C)(Cc1ccc(Oc2ccc(C(N)=O)cn2)cc1)NC[C@H](O)COc1cccc(-c2ccno2)c1 [Example 35] | 28.9 n = 1% |
| CCOC(=O)c1ccc(Oc2ccc(CC(C)(C)NC[C@H](O)COc3ccccc3-c3ccno3)cc2)c(F)c1.O=C(O)C(F)(F)F [Example 186] | 41.1 ± 8.2% |
| CC(C)(Cc1ccc(Oc2ncccc2C#N)cc1)NC[C@H](O)COc1ccccc1-c1ccno1 [Example 53] | 74.5 ± 12.5% |
| CC(C)(Cc1ccc(Oc2ncccc2C(N)=O)cc1)NC[C@H](O)COc1ccccc1-c1csnn1.O=C(O)C(=O)O [Example 98] | 39.2 ± 4.0% |
| CC(C)(Cc1ccc(Oc2ncc(C(F)(F)F)cc2Cl)cc1)NC[C@H](O)COc1ccccc1-c1ccno1.O=C(O)C(F)(F)F [Example 160] | 56.3 ± 1.4% |
| CCOC(=O)c1ccc(Oc2ccc(CC(C)(C)NC[C@H](O)COc3ccccc3-c3nccs3)cc2)c(F)c1.O=C(O)C(F)(F)F [Example 185] | 45.1 ± 2.6% |
| CC(C)(Cc1ccc(Oc2cccc(Cl)n2)cc1)NC[C@H](O)COc1ccccc1-c1nccs1.O=C(O)C(F)(F)F [Example 176] | 57.0 ± 7.6% |
| CC(C)(Cc1ccc(Oc2ncccc2C#N)cc1)NC[C@H](O)COc1ccccc1-c1ccncn1 [Example 57] | 41.8 ± 5.6% |
| CC(C)(Cc1ccc(Oc2ccc(C#N)cc2F)cc1)NC[C@H](O)COc1ccccc1-c1cccs1.O=C(O)C(F)(F)F [Example 187] | 45.1 ± 1.5% |
| CC(C)(Cc1ccc(Oc2ncccn2)cc1)NC[C@H](O)COc1ccccc1-c1cccs1.O=C(O)C(F)(F)F [Example 150] | 69.8 ± 6.0% |
| CC(C)(Cc1ccc(Oc2cnccn2)cc1)NC[C@H](O)COc1ccccc1-c1nccs1.O=C(O)C(F)(F)F [Example 154] | 61.1 ± 7.7% |
| CC(C)(Cc1ccc(Oc2ccc(C#N)cn2)cc1)NC[C@H](O)COc1ccccc1-c1ccno1 [Example 7] | 48.8 ± 2.5% |
| Cn1nccc1-c1ccccc1OC[C@@H](O)CNC(C)(C)Cc1ccc(Oc2ncccc2C(N)=O)cc1 [Example 66] | 26.6 n = 1% |
| CC(C)(Cc1ccc(Oc2ncccc2C#N)cc1)NC[C@H](O)COc1ccc(-c2ccno2)cc1.O=C(O)C(F)(F)F [Example 62] | 24.7 ± 5.2% |
| CC(C)(Cc1ccc(Oc2ncccc2C(N)=O)cc1)NC[C@H](O)COc1ccccc1N1CCNCC1.Cl.Cl.Cl [Example 80] | 12.3 ± 0.2% |
| CC(C)(Cc1ccc(Oc2ccc(C(N)=O)cn2)cc1)NC[C@H](O)COc1ccccc1-c1nc2ccccc2s1 [Example 27] | 20.8 ± 8.5% |

| SMILES | Emax (%) ± SEM |
| --- | --- |
| CC(C)(Cc1ccc(Oc2ncccc2C(N)=O)cc1)NC[C@H](O)COc1ccccc1N1CCCCC1.Cl.Cl [Example 79] | 21.3 ± 3.3% |
| CC(C)(Cc1ccc(Oc2ncccc2C(N)=O)cc1)NC[C@H](O)COc1cccc(-c2cc[nH]n2)c1 [Example 92] | 14.4 n = 1% |
| COC(=O)c1ccc(Oc2ccc(CC(C)(C)NC[C@H](O)COc3ccccc3-c3nccs3)cc2)c(Cl)c1 [Example 140] | 48.9 ± 2.5% |
| CC(C)(Cc1ccc(Oc2ncccn2)cc1)NC[C@H](O)COc1ccccc1-c1nccs1.O=C(O)C(F)(F)F [Example 151] | 73.1 ± 3.8% |
| CC(C)(Cc1ccc(Oc2ccccc2C(N)=O)cc1)NC[C@H](O)COc1cccc(F)c1-c1cccs1.O=C(O)C(F)(F)F [Example 228] | 28.9 ± 3.4% |
| CC(C)(Cc1ccc(Oc2ccc(C(F)(F)F)cn2)cc1)NC[C@H](O)COc1ccccc1-c1ccno1.O=C(O)C(F)(F)F [Example 195] | 48.1 ± 3.8% |
| CC(C)(Cc1ccc(Oc2ccccc2C#N)cc1)NC[C@H](O)COc1ccccc1-c1cccs1.O=C(O)C(F)(F)F [Example 286] | 72.1 ± 4.5% |
| CC(C)(Cc1ccc(Oc2ncccc2C#N)cc1)NC[C@H](O)COc1ccccc1-c1ccn[nH]1 [Example 55] | 37.5 n = 1% |
| CC(C)(Cc1ccc(Oc2ccc(Cl)nn2)cc1)NC[C@H](O)COc1ccccc1-c1ccno1.O=C(O)C(F)(F)F [Example 210] | 89.1 ± 2.7% |
| Cn1ccc(-c2ccccc2OC[C@@H](O)CNC(C)(C)Cc2ccc(Oc3ccc(S(C)(=O)=O)cc3)cc2)n1 [Example 128] | 40.6 n = 1% |
| CC(C)(Cc1ccc(Oc2ccc(C(N)=O)cc2Cl)cc1)NC[C@H](O)COc1ccccc1-c1cscn1.Cl [Example 253] | 37.6 ± 2.7% |
| COC(=O)c1ccc(Oc2ccc(CC(C)(C)NC[C@H](O)COc3ccccc3-c3ccno3)cc2)nc1 [Example 117] | 32.2 ± 6.5% |
| CC(C)(Cc1ccc(Oc2ccc(C(N)=O)cc2F)cc1)NC[C@H](O)COc1ccccc1-c1nccs1.O=C(O)C(F)(F)F [Example 191] | 49.5 ± 1.5% |
| COC(=O)c1ccc(Oc2ccc(CC(C)(C)NC[C@H](O)COc3ccccc3-c3ccn(C)n3)cc2)nc1 [Example 114] | 56.6 n = 1% |
| CC(C)(Cc1ccc(Oc2cccc(Cl)n2)cc1)NC[C@H](O)COc1ccccc1-c1cccs1.O=C(O)C(F)(F)F [Example 175] | 67.4 ± 3.9% |
| CC(C)(Cc1ccc(Oc2ncccc2C#N)cc1)NC[C@H](O)COc1cccc(F)c1-c1cccs1.O=C(O)C(F)(F)F [Example 64] | 30.5 ± 6.8% |
| CC(C)(Cc1ccc(Oc2ccc(C#N)cn2)cc1)NC[C@H](O)COc1ccccc1-c1cc2ccccc2[nH]1 [Example 9] | 23.7 ± 10.0% |
| CC(C)(Cc1ccc(Oc2cccc(Cl)c2C(N)=O)cc1)NC[C@H](O)COc1ccccc1-c1ccno1.O=C(O)C(F)(F)F [Example 219] | 50.4 ± 6.3% |
| CC(C)(Cc1ccc(Oc2ccc(C(N)=O)cn2)cc1)NC[C@H](O)COc1ccccc1-c1nncs1.O=C(O)C(=O)O [Example 42] | 43.3 ± 2.7% |
| Cn1nccc1-c1ccccc1OC[C@@H](O)CNC(C)(C)Cc1ccc(Oc2ccc(C(N)=O)cn2)cc1 [Example 14] | 16.9 n = 1% |
| CC(C)(Cc1ccc(Oc2cccc(Cl)c2C(N)=O)cc1)NC[C@H](O)COc1ccccc1-c1cccs1.O=C(O)C(F)(F)F [Example 218] | 76.5 ± 1.7% |
| CC(C)(Cc1ccc(Oc2ncccc2C(N)=O)cc1)NC[C@H](O)COc1ccccc1-c1ccncn1 [Example 76] | 48.8 ± 5.5% |
| CC(C)(Cc1ccc(Oc2ncccc2C(N)=O)cc1)NC[C@H](O)COc1ccccc1-c1nc2ccccc2s1 [Example 82] | 45.9 ± 10.7% |
| CC(C)(Cc1ccc(Oc2ncccc2C(N)=O)cc1)NC[C@H](O)COc1ccccc1N1CCOCC1.Cl.Cl [Example 78] | 30.3 ± 5.1% |

Source: patent US6730792B2, “β3 adrenergic agonists” (Eli Lilly and Company, priority 2000, dated 2004)
